# Test results reported in publication PMC7567501 (Journal of Enzyme Inhibition and Medicinal Chemistry, 2019).
# Legend:
# [1] = Fe(III) complexation, UV-vis spectrophotometric titration; type: physicochemical; conditions: 25% w/w DMSO/water
# Method: (§1) It has been largely accepted that chelators interfere both in metal-induced Aβ aggregation/neurotoxicity and on metal homeostasis of AD brains. Among the hybrids with BF hydroxyl substituent, compound 21 was chosen as a representative model to analyse the concomitant chelating capacity towards the redox-active (Fe(III), Cu(II)) and Aβ-binding (Cu(II)) metal ions. Due to solubility reasons, these studies were performed in a mixed 25% (w/w) DMSO/water medium, In fact, DMSO was chosen because it is a widely used and well tolerated solvent in biological and cellular studies, the amounts of ligand (<7 µM) and DMSO (<1%) employed in culture media being quite low with concomitant no alterations observed in cells.
# (§2) The chelating ability of compound 21 towards the two metal ions under study (Fe(III) and Cu(II)) was evaluated on the basis of the global formation constants of the complexes, obtained by treatment of the UV-vis spectrophotometric data (see Table 1).
# (§3) For the metal complexation studies, the aqueous iron (FeCl3, 0.0177 M) and copper (CuCl2, 0.015 M) stock solutions were prepared from 1000 ppm standards (Titrisol) and their metal content was evaluated by atomic absorption. To prevent hydrolysis, the iron stock solution was prepared in excess of acid chloride and its exact concentration in HCl determined by the usual standard-addition method using 0.1 M HCl (Titrisol). The 0.1 M HCl solution, used in spectrophotometric titrations, was prepared from a Titrisol ampoule while the titrant was from carbonate free commercial concentrate (Titrisol, KOH 0.1 M ampoules). The KOH solution was standardised by titration with a solution of potassium hydrogen phthalate and was discarded whenever the percentage of carbonate, determined by Gran’s method, was greater than 0.5% of the total amount of base.
# (§4) The electronic spectra and the AChE inhibition assays were performed in a 1-cm path length quartz cell with a Perkin Elmer Lambda 35 spectrophotometer equipped with a temperature programmer PTP1 + 1 Peltier System (T = 25.0 ± 0.1 °C). The enzyme AChE 500 U, extracted from Electrophorus electricus (electric eel), was purchased from Sigma-Aldrich.
# [2] = Cu(II) complexation, UV-vis spectrophotometric titration; type: physicochemical; conditions: 25% w/w DMSO/water
# Method: as §1, §2, §3, §4
# [3] = molecular target: T1, Aβ1-42 (Homo sapiens, UniProt P05067); test: TEM imaging of Aβ aggregation inhibition; conditions: compound 50 μM, 37 °C, 24 h, pH 6.6
# T1 construct: Amyloid β-peptide (1–42), Aβ1-42, was purchased from GeneCust; purchased GeneCust
# T1 sequence (P05067 672-713 limits assumed): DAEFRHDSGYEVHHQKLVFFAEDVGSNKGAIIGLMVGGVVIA
# Method: Nevertheless, since quantitative analysis based on fluorescence of copper(II) containing solutions may result in somehow erroneous conclusions due to some potential emission quenching by this paramagnetic ion, a fluorescence-independent study by transmission electron microscopy (TEM) was also performed for compound 21. […] Overall, TEM confirms the role of the ligand in the inhibition of Aβ aggregation.
# Figure 6. TEM images of Aβ aggregation inhibition performed with samples incubated (37 °C) for 24 h. Experimental conditions: [Aβ1–42] = [CuCl2] = 25 μM; [21] = 50 μM; pH = 6.6.
# For the study of the β-amyloid (Aβ) aggregation, the ThT fluorescence assay was performed using a Varian Cary Eclipse fluorimeter at the following wavelengths: excitation (446 nm) and emission (485 nm). Amyloid β-peptide (1–42), Aβ1-42, was purchased from GeneCust as a lyophilised powder stored at −20 °C. TEM assays were performed with a Hitachi H8100 transmission electron microscope with a LaB6 filament (200 kV, 10000–20000 × magnification) at MicroLab/IST.
# The Transmission Electron Microscopy (TEM) is a high resolution technique used to study biological or inorganic samples at 2–3 nm level, through black and white high-quality images. The compound 21 was selected among those with better anti-Aβ aggregation assay. […]
# [4] = pH 7.4, CL/CM = 10, CM = 10^−6 M
compound,measurement,setting,value
"O=C(NCCCNc1c2c(nc3ccccc13)CCCC2)c1cc2cccc(O)c2o1 [Compound 21, 7-Hydroxy-N-(3-((1,2,3,4-tetrahydroacridin-9-yl)amino)propyl)benzofuran-2-carboxamide]","log βFemHhLl, species (1–22)","[1]; T = 25.0 °C, I = 0.1 M KCl",12.21(8)
same,"log βFemHhLl, species (103)","[1]; T = 25.0 °C, I = 0.1 M KCl",36.95(7)
same,"log βFemHhLl, species (111)","[1]; T = 25.0 °C, I = 0.1 M KCl",22.90(6)
same,"log βFemHhLl, species (112)","[1]; T = 25.0 °C, I = 0.1 M KCl",38.37(6)
same,pM (pFe) = −log[M],[1]; [4],22.2
same,"log βCumHhLl, species (1–11)","[2]; T = 25.0 °C, I = 0.1 M KCl",2.25(3)
same,"log βCumHhLl, species (101)","[2]; T = 25.0 °C, I = 0.1 M KCl",10.87(6)
same,"log βCumHhLl, species (102)","[2]; T = 25.0 °C, I = 0.1 M KCl",20.68(8)
same,"log βCumHhLl, species (111)","[2]; T = 25.0 °C, I = 0.1 M KCl",19.02(2)
same,pM (pCu) = −log[M],[2]; [4],11.9
same,"TEM morphology of Aβ42 aggregates, self-induced","[3]; [Aβ1–42] = 25 μM, no copper",the aggregates became sparser and more elongated
same,TEM morphology of Aβ42 aggregates in presence of copper,[3]; [Aβ1–42] = [CuCl2] = 25 μM,formation of homogenous low molecular aggregates
